The term solubility denotes how much of the substance goes into solution per volume.

Read-outs that look alike come from different tables or passages of the source.

Consider four compounds from patent US20250382344A1, “Soluble GLP1/GIP/NPY2 Receptor Triple Agonists” (Boehringer Ingelheim International GmH, priority 2024, published 2025).

One data set addresses T1, hNPY2R (Homo sapiens, UniProt P49146).
T1 construct: expressed in transfected cells; host or cells: HEK-293 CRE-luciferase reporter cells
T1 sequence (P49146 1-381): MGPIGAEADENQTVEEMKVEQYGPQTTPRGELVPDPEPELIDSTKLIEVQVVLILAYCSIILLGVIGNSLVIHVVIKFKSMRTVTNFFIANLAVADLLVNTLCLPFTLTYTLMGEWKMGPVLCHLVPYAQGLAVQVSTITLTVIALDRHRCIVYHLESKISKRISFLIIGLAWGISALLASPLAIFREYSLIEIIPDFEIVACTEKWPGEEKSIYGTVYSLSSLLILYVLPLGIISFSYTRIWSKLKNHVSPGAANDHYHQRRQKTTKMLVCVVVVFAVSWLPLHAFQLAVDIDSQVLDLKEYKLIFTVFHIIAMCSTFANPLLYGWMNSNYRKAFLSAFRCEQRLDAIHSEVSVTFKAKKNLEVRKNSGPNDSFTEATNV
The data set can be described thus: hNPY2R CreLuc assay in 0.5% and 100% plasma (HEK-293 CRE-luciferase reporter cells). Type of data set: cell-based. Particulars: HEK-293 reporter cells.

Another data set has as its target T2, hGIPR (Homo sapiens, UniProt P48546).
T2 construct: expressed in transfected cells; host or cells: CHO CRE-luciferase reporter cells
T2 sequence (P48546 22-466): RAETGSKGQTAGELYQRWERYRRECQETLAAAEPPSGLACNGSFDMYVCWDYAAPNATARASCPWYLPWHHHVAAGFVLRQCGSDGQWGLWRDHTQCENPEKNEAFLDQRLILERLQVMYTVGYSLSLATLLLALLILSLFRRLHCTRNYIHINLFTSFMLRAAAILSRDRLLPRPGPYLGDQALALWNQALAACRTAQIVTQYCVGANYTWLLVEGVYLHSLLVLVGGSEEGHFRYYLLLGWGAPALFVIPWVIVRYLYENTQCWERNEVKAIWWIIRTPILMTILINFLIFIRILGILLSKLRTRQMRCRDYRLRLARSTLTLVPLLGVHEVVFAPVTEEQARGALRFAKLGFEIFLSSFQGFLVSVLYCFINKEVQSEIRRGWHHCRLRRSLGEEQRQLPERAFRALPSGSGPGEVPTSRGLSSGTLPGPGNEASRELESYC
In words: hGIPR CreLuc assay in 0.5% and 100% plasma (CHO CRE-luciferase reporter cells). In kind it is cell-based. (In general: A reporter such as luciferase makes a cellular process visible.)

A further data set has as its target T3, hGLP1R (Homo sapiens, UniProt P43220).
T3 construct: expressed in transfected cells; host or cells: HEK-293 CRE-luciferase reporter cells
The data set can be described thus: hGLP1R CreLuc assay in 0.5% and 100% plasma (HEK-293 CRE-luciferase reporter cells). Particulars: 0.5% human plasma, HEK-293 reporter cells, read-out: hGLP1R 0.5% hP. Type of data set: cell-based.

Data set [1] is described as follows: Solubility in 0.1 M phosphate buffer at pH 7. Type of data set: physicochemical. Particulars: 0.1 M phosphate buffer at pH 7, 10 mg/mL final peptide concentration, shaking 2 hours at room temperature, peptides as TFA-salts; measured sample pH 6.5-7.0.
Setting [2] is: 0.5% human plasma, read-out: hGIPR 0.5% hP.
[3] abbreviates: 100% human plasma, read-out: hNPY2R 100% hP.

T3 sequence (P43220 24-463): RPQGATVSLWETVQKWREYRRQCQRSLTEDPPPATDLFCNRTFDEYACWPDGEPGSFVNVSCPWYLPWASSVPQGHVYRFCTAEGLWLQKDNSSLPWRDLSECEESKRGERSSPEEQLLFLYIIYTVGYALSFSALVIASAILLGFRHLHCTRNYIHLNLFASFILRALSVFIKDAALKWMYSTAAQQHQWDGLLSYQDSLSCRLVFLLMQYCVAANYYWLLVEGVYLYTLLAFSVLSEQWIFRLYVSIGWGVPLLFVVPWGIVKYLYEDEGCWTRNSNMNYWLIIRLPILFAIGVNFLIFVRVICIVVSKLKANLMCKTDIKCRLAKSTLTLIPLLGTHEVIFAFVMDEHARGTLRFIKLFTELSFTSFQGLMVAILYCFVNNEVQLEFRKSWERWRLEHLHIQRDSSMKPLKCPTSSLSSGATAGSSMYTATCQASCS

Regarding `CC[C@H](C)[C@H](NC(=O)[C@H](CC(C)C)NC(=O)[C@H](Cc1c[nH]cn1)NC(=O)[C@H](CCCNC(=N)N)NC(=O)[C@@H](NC(=O)[C@H](Cc1ccccc1)NC(=O)[C@H](CCC(=O)O)NC(=O)C(C)(C)NC(=O)[C@H](CCC(N)=O)NC(=O)[C@H](C)NC(=O)[C@H](CCC(=O)O)NC(=O)[C@H](CCC(=O)O)NC(=O)[C@H](CCC(=O)O)NC(=O)[C@H](CC(C)C)NC(=O)C(C)(C)NC(=O)[C@@H](NC(=O)[C@H](CO)NC(=O)[C@H](Cc1ccc(O)cc1)NC(=O)[C@H](CC(=O)O)NC(=O)[C@H](CO)NC(=O)[C@@H](NC(=O)[C@H](Cc1ccccc1)NC(=O)[C@@H](NC(=O)CNC(=O)[C@H](CCC(=O)O)NC(=O)C(C)(C)NC(=O)[C@@H](N)Cc1ccc(O)cc1)[C@@H](C)O)[C@@H](C)O)[C@@H](C)CC)C(C)C)C(=O)N[C@@H](CC(N)=O)C(=O)N[C@@H](CCCCNC(=O)CC[C@H](NC(=O)CC[C@H](NC(=O)CC[C@H](NC(=O)CC[C@H](NC(=O)CCCCCCCCCCCCCCCCC(=O)O)C(=O)O)C(=O)O)C(=O)O)C(=O)O)C(=O)NC(C)(C)C(=O)N[C@H](C(=O)N[C@@H](CCCNC(=N)N)C(=O)N[C@@H](CCC(N)=O)C(=O)N[C@@H](CCCNC(=N)N)C(=O)N[C@@H](Cc1ccc(O)cc1)C(N)=O)[C@@H](C)O` [Compound 64, Y-Aib-E-G-T-F-T-S-D-Y-S-I-Aib-L-E-E-E-A-Q-Aib-E-F-V-R-H-L-I-N-K(1,3)-Aib-T-R-Q-R-Y-NH2.C18DA-gGlu-gGlu-gGlu-gGlu(1,2)], the EC50 on hNPY2R (0.5% human plasma, read-out: hNPY2R 0.5% hP) stood at 162 nM; at hGIPR (setting [2]), 0.5 nM; on hGLP1R, 0.5 nM. Besides, the solubility at 2 h in data set [1] came out at 4800 µg/mL.
As to `CC[C@H](C)[C@H](NC(=O)[C@H](CC(C)C)NC(=O)[C@H](Cc1c[nH]cn1)NC(=O)[C@H](CCCNC(=N)N)NC(=O)[C@@H](NC(=O)[C@H](Cc1ccccc1)NC(=O)[C@H](C)NC(=O)C(C)(C)NC(=O)[C@H](CCC(N)=O)NC(=O)[C@H](C)NC(=O)[C@H](CCC(N)=O)NC(=O)[C@H](CCC(N)=O)NC(=O)[C@H](CC(=O)O)NC(=O)[C@H](CC(C)C)NC(=O)C(C)(C)NC(=O)[C@@H](NC(=O)[C@H](CO)NC(=O)[C@H](Cc1ccc(O)cc1)NC(=O)[C@H](CC(=O)O)NC(=O)[C@H](CO)NC(=O)[C@@H](NC(=O)[C@H](Cc1ccccc1)NC(=O)[C@@H](NC(=O)CNC(=O)[C@H](CCC(=O)O)NC(=O)C(C)(C)NC(=O)[C@@H](N)Cc1ccc(O)cc1)[C@@H](C)O)[C@@H](C)O)[C@@H](C)CC)C(C)C)C(=O)N[C@@H](CC(N)=O)C(=O)N[C@@H](CCCCNC(=O)[C@@H](N)CCCCNC(=O)CC[C@H](NC(=O)CC[C@H](NC(=O)CC[C@H](NC(=O)CC[C@H](NC(=O)CC[C@H](NC(=O)CCCCCCCCCCCCCCCCC(=O)O)C(=O)O)C(=O)O)C(=O)O)C(=O)O)C(=O)O)C(=O)NC(C)(C)C(=O)N[C@H](C(=O)N[C@@H](CCCNC(=N)N)C(=O)N[C@@H](CCC(N)=O)C(=O)N[C@@H](CCCNC(=N)N)C(=O)N[C@@H](Cc1ccc(O)cc1)C(N)=O)[C@@H](C)O` [Compound 70, Y-Aib-E-G-T-F-T-S-D-Y-S-I-Aib-L-D-Q-Q-A-Q-Aib-A-F-V-R-H-L-I-N-K(1,3)-Aib-T-R-Q-R-Y-NH2.C18DA-gGlu-gGlu-gGlu-gGlu-gGlu-eLys(1,2)], the EC50 at hNPY2R (setting [3]) worked out at 119 nM; on hGIPR (setting [2]), 0.2 nM; at hGLP1R, 0.2 nM. The solubility at 2 h in data set [1] was 9100 µg/mL.
As to `CC[C@H](C)[C@H](NC(=O)[C@H](CC(C)C)NC(=O)[C@H](Cc1c[nH]cn1)NC(=O)[C@H](CCCNC(=N)N)NC(=O)[C@@H](NC(=O)[C@H](Cc1ccccc1)NC(=O)[C@H](CCC(=O)O)NC(=O)C(C)(C)NC(=O)[C@H](CCC(N)=O)NC(=O)[C@H](C)NC(=O)[C@H](CCC(N)=O)NC(=O)[C@H](CCCCN)NC(=O)[C@H](CCC(=O)O)NC(=O)[C@H](CC(C)C)NC(=O)C(C)(C)NC(=O)[C@@H](NC(=O)[C@H](CO)NC(=O)[C@H](Cc1ccc(O)cc1)NC(=O)[C@H](CC(=O)O)NC(=O)[C@H](CO)NC(=O)[C@@H](NC(=O)[C@H](Cc1ccccc1)NC(=O)[C@@H](NC(=O)CNC(=O)[C@H](CCC(=O)O)NC(=O)C(C)(C)NC(=O)[C@@H](N)Cc1ccc(O)cc1)[C@@H](C)O)[C@@H](C)O)[C@@H](C)CC)C(C)C)C(=O)N[C@@H](CC(N)=O)C(=O)N[C@@H](CCCCNC(=O)COCCOCCNC(=O)COCCOCCNC(=O)CC[C@H](NC(=O)CC[C@H](NC(=O)CC[C@H](NC(=O)CC[C@H](NC(=O)CCCCCCCCCCCCCCCCC(=O)O)C(=O)O)C(=O)O)C(=O)O)C(=O)O)C(=O)NC(C)(C)C(=O)N[C@H](C(=O)N[C@@H](CCCNC(=N)N)C(=O)N[C@@H](CCC(N)=O)C(=O)N[C@@H](CCCNC(=N)N)C(=O)N[C@@H](Cc1ccc(O)cc1)C(N)=O)[C@@H](C)O` [Compound 73, Y-Aib-E-G-T-F-T-S-D-Y-S-I-Aib-L-E-K-Q-A-Q-Aib-E-F-V-R-H-L-I-N-K(1,3)-Aib-T-R-Q-R-Y-NH2.C18DA-gGlu-gGlu-gGlu-gGlu-OEG-OEG(1,2)], the EC50 turned out to be 136 nM at hNPY2R (setting [3]); 0.4 nM on hGIPR (setting [2]); 5.9 nM on hGIPR (100% human plasma, read-out: hGIPR 100% hP); 0.4 nM on hGLP1R. Further, in data set [1], the solubility at 2 h is 4900 µg/mL.
Turning to `CC[C@H](C)[C@H](NC(=O)[C@H](CC(C)C)NC(=O)[C@H](Cc1c[nH]cn1)NC(=O)[C@H](CCCNC(=N)N)NC(=O)[C@@H](NC(=O)[C@H](Cc1ccccc1)NC(=O)[C@H](C)NC(=O)C(C)(C)NC(=O)[C@H](CCC(N)=O)NC(=O)[C@H](C)NC(=O)[C@H](CCC(N)=O)NC(=O)[C@H](CCCCN)NC(=O)[C@H](CCC(=O)O)NC(=O)[C@H](CC(C)C)NC(=O)C(C)(C)NC(=O)[C@@H](NC(=O)[C@H](CO)NC(=O)[C@H](Cc1ccc(O)cc1)NC(=O)[C@H](CC(=O)O)NC(=O)[C@H](CO)NC(=O)[C@@H](NC(=O)[C@H](Cc1ccccc1)NC(=O)[C@@H](NC(=O)CNC(=O)[C@H](CCC(=O)O)NC(=O)C(C)(C)NC(=O)[C@@H](N)Cc1ccc(O)cc1)[C@@H](C)O)[C@@H](C)O)[C@@H](C)CC)C(C)C)C(=O)N[C@@H](CC(N)=O)C(=O)N[C@@H](CCCCNC(=O)[C@@H](N)CCCNC(=O)CC[C@H](NC(=O)CC[C@H](NC(=O)CC[C@H](NC(=O)CC[C@H](NC(=O)CC[C@H](NC(=O)CC[C@H](NC(=O)CCCCCCCCCCCCCCCCC(=O)O)C(=O)O)C(=O)O)C(=O)O)C(=O)O)C(=O)O)C(=O)O)C(=O)NC(C)(C)C(=O)N[C@H](C(=O)N[C@@H](CCCNC(=N)N)C(=O)N[C@@H](CCC(N)=O)C(=O)N[C@@H](CCCNC(=N)N)C(=O)N[C@@H](Cc1ccc(O)cc1)C(N)=O)[C@@H](C)O` [Compound 87, Y-Aib-E-G-T-F-T-S-D-Y-S-I-Aib-L-E-K-Q-A-Q-Aib-A-F-V-R-H-L-I-N-K(1,3)-Aib-T-R-Q-R-Y-NH2.C18DA-gGlu-gGlu-gGlu-gGlu-gGlu-gGlu-dtOrn(1,2)], the EC50 at hNPY2R (setting [3]) was determined as 57.9 nM; at hGIPR (setting [2]), 0.2 nM; on hGLP1R, 1.7 nM. Further, in data set [1], the solubility at 2 h was determined as 4900 µg/mL.
